Experimental data taken from US20110244497A1, “METHOD FOR JUDGING SUSCEPTIBILITY OF CANCER CELLS TO ANTHRACYCLINE ANTICANCER AGENT AND COMPUTER PROGRAM” (SYSMEX CORPORATION, priority 2010, published 2011).

System: 29 types of breast cancer cell lines
Assay: Measurement of IC50 of doxorubicin, Celltiter Glo Luminescent Cell Viability Assay
Type: cell-based
Settings: median over 29 human breast cancer cell lines; doxorubicin 0-2000 nM; growth measured 72 hours after culture-medium exchange; used as threshold sensitive/nonsensitive
Description: 29 types of breast cancer cell lines shown in Reference example 1 were inoculated into wells on two sheets of microplates at 5000 cells/100 uL/well using culture media containing doxorubicin at 0 nM, 250 nM, 500 nM, 750 nM, 1000 nM, and 2000 nM concentrations, followed by culturing for 24 hours.
Culture media containing doxorubicin at respective concentrations were prepared and the culture medium exchange was performed. Immediately after the culture-medium exchange, the growth of the cells on one of the microplates was measured using Celltiter Glo Luminescent Cell Viavility Assay (Cat#G7571: manufactured by Promega KK.). The remaining microplate was cultured under the culture conditions shown in Reference example 1 for 72 hours after the culture-medium exchange. Thereafter, the growth of the cells was measured using Celltiter Glo Luminescent Cell Viavility Assay (Cat#G7571: manufactured by Promega KK.).
On the basis of the number of the living cells measured, the concentration (IC50) of doxorubicin (the number of […]×100=50) was determined.

Q: How did the IC50 turn out when `COc1cccc2c1C(=O)c1c(O)c3c(c(O)c1C2=O)C[C@@](O)(C(=O)CO)C[C@@H]3O[C@H]1C[C@H](N)[C@H](O)[C@H](C)O1` [doxorubicin] was run?
A: Its IC50 is 0.392 µM.
